Laboratory results published in article PMC8657898, “Cytokinin Perception in Ancient Plants beyond Angiospermae” (International Journal of Molecular Sciences, 2021).
Read-outs that look alike come from different tables or passages of the source.

Experiments:
[1] = biological target: T1, PpCHK1 (Physcomitrium patens, UniProt A0A068JFF6); assay: competition of unlabeled CKs with 3H-iP, tobacco leaf microsomes expressing the receptor; format: binding
[2] = biological target: T2, PpCHK2 (Physcomitrium patens, UniProt A0A068JG96); assay: as above; format: binding
[3] = biological target: T3, SmCHK4a (Selaginella moellendorffii, UniProt D8R9F4); assay: as above; format: binding
[4] = biological target: T4, SmCHK6 (Selaginella moellendorffii, UniProt D8SUD5); assay: as above; format: binding
[5] = biological target: PaCHK1; assay: as above; format: binding, Picea abies
[6] = biological target: PaCHK2; assay: as above; format: binding, Picea abies
[7] = tested on: AHK3; settings: AHK3 from A. thaliana; cited from earlier work
[8] = biological target: T1, PpCHK1; assay: direct 3H-iP binding (saturation, pH dependence), tobacco leaf microsomes; settings: saturation curve of 3H-iP specific binding
[9] = biological target: T2, PpCHK2; assay: as above; settings: saturation curve of 3H-iP specific binding
[10] = biological target: T3, SmCHK4a; assay: as above; settings: saturation curve of 3H-iP specific binding
[11] = biological target: T4, SmCHK6; assay: as above; settings: saturation curve of 3H-iP specific binding
[12] = biological target: PaCHK1; assay: as above; set-up: species or system Picea abies; settings: saturation curve of 3H-iP specific binding
[13] = biological target: PaCHK2; assay: as above; set-up: species or system Picea abies; settings: saturation curve of 3H-iP specific binding
[14] = tested on: PpCHK3; assay: specific binding of 3H-iP, tobacco leaf microsomes; set-up: species or system Physcomitrium patens; settings: PpCHK3 sensory module; expression confirmed by immunoblotting
Description: (§1) We experimentally analyzed the ligand-binding properties of CHK receptors from P. patens, S. moellendorffii, and P. abies using a radiolabeled ligand method and microsomes from tobacco leaves where these receptors were transiently expressed. Tritiated isopentenyladenine served as the labeled CK. PpCHK1 and 2 proteins from P. patens were tested in a full-length version, and otherwise sensory modules (SMs) flanked by TM helices were used. PpCHK1-3 represented canonical CHK receptor group, while PpCHK4 was a representative of the related sister group. […]
(§2) Of the eight cloned receptors, we detected no CK binding for PpCHK3 and PpCHK4, although expression of these proteins was confirmed by immunoblotting against the fused GFP domain (Figure 2). […]
(§3) pK7WGF2 and pB7FWG2 constructs were transformed to Agrobacterium tumefaciens strain GV3101 and transiently expressed in Nicotiana benthamiana leaves. […] Transient expression was assessed by means of immunoblotting of microsomal membranes with antibodies against GFP (Agrisera, AS15 2987) diluted 1:5000 as described in [15]. Background binding of ^3H-iP by endogenous CK receptors of N. benthamiana was assessed in control probes using microsomes from untreated leaves (Figure 2). […]

[15] = tested on: PpCHK4; assay: specific binding of 3H-iP, tobacco leaf microsomes; set-up: species or system Physcomitrium patens; settings: PpCHK4 sensory module; expression confirmed by immunoblotting
Description: as §1, §2, §3

[16] = tested on: PpCHK3; settings: previous data; cited from earlier work
[17] = PpCHK1, competition with 3H-iP, Cheng-Prusoff calculation method, ± SE, read-out: KD of CK-Receptor Complexes
[18] = PpCHK1, competition with 3H-iP, alternative calculation method (Appendix A), ± SE, read-out: KD of CK-receptor complexes
[19] = PpCHK2, competition with 3H-iP, Cheng-Prusoff calculation method, ± SE, read-out: KD of CK-Receptor Complexes
[20] = PpCHK2, competition with 3H-iP, alternative calculation method (Appendix A), ± SE, read-out: KD of CK-receptor complexes
[21] = SmCHK4a, competition with 3H-iP, Cheng-Prusoff calculation method, ± SE, read-out: KD of CK-Receptor Complexes
[22] = SmCHK4a, competition with 3H-iP, alternative calculation method (Appendix A), ± SE, read-out: KD of CK-receptor complexes
[23] = SmCHK6, competition with 3H-iP, Cheng-Prusoff calculation method, ± SE, read-out: KD of CK-Receptor Complexes
[24] = SmCHK6, competition with 3H-iP, alternative calculation method (Appendix A), ± SE, read-out: KD of CK-receptor complexes
[25] = PaCHK1, competition with 3H-iP, Cheng-Prusoff calculation method, ± SE, read-out: KD of CK-Receptor Complexes
[26] = PaCHK1, competition with 3H-iP, alternative calculation method (Appendix A), ± SE, read-out: KD of CK-receptor complexes
[27] = PaCHK2, competition with 3H-iP, Cheng-Prusoff calculation method, ± SE, read-out: KD of CK-Receptor Complexes
[28] = PaCHK2, competition with 3H-iP, alternative calculation method (Appendix A), ± SE, read-out: KD of CK-receptor complexes
[29] = KD for PaCHK1 divided by KD for PaCHK2, Table 1 values
[30] = read-out: KD of CK-Receptor Complexes
[31] = read-out: KD of CK-receptor complexes

T4 sequence (D8SUD5 entry or part of it): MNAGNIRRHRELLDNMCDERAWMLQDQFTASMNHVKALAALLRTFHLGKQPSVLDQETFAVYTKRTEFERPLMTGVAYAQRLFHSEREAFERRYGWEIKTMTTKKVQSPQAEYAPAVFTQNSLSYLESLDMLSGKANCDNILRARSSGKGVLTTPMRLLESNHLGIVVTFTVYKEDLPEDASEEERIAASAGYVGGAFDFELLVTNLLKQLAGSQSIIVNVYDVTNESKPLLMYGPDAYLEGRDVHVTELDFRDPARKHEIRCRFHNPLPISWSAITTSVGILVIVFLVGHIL
T2 sequence (A0A068JG96 entry or part of it): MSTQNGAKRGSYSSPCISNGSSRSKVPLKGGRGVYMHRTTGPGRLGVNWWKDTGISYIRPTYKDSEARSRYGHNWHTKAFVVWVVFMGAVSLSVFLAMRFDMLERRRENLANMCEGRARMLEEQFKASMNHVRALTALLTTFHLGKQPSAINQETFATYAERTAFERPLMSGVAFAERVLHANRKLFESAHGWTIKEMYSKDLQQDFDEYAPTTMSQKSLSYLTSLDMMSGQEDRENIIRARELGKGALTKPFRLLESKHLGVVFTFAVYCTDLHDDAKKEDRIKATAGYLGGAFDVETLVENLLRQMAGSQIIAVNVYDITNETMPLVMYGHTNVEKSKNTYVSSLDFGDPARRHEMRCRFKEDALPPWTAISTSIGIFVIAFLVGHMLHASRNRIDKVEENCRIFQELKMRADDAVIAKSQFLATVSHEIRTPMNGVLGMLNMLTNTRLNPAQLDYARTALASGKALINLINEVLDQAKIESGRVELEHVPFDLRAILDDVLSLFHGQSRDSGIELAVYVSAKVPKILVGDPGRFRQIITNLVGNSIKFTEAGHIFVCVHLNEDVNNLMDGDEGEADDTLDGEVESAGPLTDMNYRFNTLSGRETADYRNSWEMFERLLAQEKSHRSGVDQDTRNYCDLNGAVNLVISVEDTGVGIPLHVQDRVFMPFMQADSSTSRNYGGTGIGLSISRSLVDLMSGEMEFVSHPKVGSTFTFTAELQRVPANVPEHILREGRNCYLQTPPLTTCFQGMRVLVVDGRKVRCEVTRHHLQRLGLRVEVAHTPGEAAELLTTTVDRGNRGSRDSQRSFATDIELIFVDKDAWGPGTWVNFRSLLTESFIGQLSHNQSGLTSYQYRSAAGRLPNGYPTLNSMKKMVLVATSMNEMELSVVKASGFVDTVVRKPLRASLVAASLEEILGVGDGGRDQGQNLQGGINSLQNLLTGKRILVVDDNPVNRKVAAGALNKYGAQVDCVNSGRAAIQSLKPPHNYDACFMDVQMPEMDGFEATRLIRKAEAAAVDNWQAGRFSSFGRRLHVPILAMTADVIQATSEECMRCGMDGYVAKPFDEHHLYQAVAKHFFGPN
T1 sequence (A0A068JFF6 entry or part of it): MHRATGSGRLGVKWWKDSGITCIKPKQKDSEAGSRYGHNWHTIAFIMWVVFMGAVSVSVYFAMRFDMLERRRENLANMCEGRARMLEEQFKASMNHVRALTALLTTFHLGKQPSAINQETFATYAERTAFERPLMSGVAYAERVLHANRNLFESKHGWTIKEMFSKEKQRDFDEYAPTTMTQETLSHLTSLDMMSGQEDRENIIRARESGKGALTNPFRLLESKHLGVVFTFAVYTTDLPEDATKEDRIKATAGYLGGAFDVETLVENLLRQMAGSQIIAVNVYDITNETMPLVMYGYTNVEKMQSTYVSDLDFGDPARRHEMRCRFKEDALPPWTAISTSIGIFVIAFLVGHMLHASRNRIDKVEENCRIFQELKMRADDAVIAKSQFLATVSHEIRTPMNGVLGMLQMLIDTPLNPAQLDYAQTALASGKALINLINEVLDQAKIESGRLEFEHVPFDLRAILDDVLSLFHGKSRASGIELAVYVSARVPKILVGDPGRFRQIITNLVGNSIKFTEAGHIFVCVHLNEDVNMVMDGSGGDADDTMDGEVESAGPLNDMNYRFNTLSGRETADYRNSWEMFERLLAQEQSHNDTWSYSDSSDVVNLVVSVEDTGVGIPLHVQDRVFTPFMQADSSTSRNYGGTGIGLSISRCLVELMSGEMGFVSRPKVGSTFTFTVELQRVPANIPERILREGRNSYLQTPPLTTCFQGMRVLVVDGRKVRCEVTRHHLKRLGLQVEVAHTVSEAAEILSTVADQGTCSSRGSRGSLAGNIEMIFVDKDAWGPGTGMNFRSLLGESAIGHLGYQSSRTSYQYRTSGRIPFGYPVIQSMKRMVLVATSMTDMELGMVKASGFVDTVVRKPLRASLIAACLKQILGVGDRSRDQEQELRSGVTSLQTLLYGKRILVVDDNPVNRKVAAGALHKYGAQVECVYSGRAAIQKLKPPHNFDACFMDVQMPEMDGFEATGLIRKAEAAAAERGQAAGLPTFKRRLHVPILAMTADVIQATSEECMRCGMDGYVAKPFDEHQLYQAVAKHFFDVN
T3 sequence (D8R9F4 entry or part of it): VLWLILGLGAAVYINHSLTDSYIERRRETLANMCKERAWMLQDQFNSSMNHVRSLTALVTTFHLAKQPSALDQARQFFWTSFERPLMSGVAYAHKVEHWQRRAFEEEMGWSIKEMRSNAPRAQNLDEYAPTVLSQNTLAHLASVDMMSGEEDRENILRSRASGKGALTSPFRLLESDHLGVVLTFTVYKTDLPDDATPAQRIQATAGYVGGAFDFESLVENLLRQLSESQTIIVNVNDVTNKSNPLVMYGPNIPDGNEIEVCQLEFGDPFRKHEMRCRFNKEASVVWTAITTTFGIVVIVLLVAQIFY

Row | Structure (SMILES) | Kd [1, 17] | Kd [1, 18] | Kd [2, 19] | Kd [2, 20] | Kd [3, 21] | Kd [3, 22] | Kd [4, 23] | Kd [4, 24] | Kd [5, 25] | Kd [5, 26] | Kd [6, 27] | Kd [6, 28] | PaCHK1/CHK2 affinity ratio (KD1/KD2) [5, 29] | PaCHK1/CHK2 affinity ratio (KD1/KD2) [5] | Kd [5, 30] | Kd [5, 31] | Kd [6, 30] | Kd [6, 31] | further results
1 | c1ccc(CNc2ncnc3nc[nH]c23)cc1 [BA, benzyladenine] | 0.0139 ± 0.0001 µM | 0.0128 ± 0.003 µM | 0.0107 ± 0.0005 µM | 0.0149 ± 0.0012 µM | 0.00691 ± 0.00034 µM | 0.0032 ± 0.0008 µM | 0.00228 ± 0.0007 µM | 0.0029 ± 0.0004 µM | 0.0619 ± 0.0013 µM | 0.0384 ± 0.0026 µM | 0.0135 ± 0.0016 µM | 0.0123 ± 0.0039 µM |  |  |  |  |  |  | 
2 | CC(CO)CCNc1ncnc2nc[nH]c12 (stereo not drawn) [DZ, dihydrozeatin] | 0.507 ± 0.042 µM | 0.676 ± 0.0144 µM | 0.323 ± 0.097 µM | 0.501 ± 0.0747 µM |  |  |  |  | 0.377 ± 0.027 µM | 0.244 ± 0.0259 µM | 0.0224 ± 0.0029 µM | 0.0291 ± 0.0054 µM | 16.8 |  |  |  |  |  | 
3 | O=C(Nc1ccccc1)Nc1cnns1 [TD, thidiazuron] | 0.0238 ± 0.0054 µM |  | 0.013 ± 0.0002 µM | 0.0119 ± 0.0028 µM |  |  |  |  | 0.0067 ± 0.00021 µM | 0.0038 ± 0.0006 µM | 0.0645 ± 0.0064 µM | 0.243 ± 0.0948 µM | 0.1 |  |  |  |  |  | PpCHK1/CHK2 affinity ratio (KD1/KD2) ([1]; KD for PpCHK1 divided by KD for PpCHK2, Table 1 values): 1.83
4 | C/C(=C/CNc1ncnc2nc[nH]c12)CO [cZ, cis-zeatin] |  |  |  |  |  |  |  |  |  |  |  |  |  | 23.4 | 0.419 ± 0.056 µM | 0.286 ± 0.0694 µM | 0.0179 ± 0.0029 µM | 0.0227 ± 0.0032 µM | PpCHK1/CHK2 affinity ratio (KD1/KD2) [1]: 3.01; cZ/tZ KD ratio [1]: 2.79; Kd [1, 30]: 0.103 ± 0.015 µM; Kd [1, 31]: 0.0944 ± 0.0263 µM; cZ/tZ KD ratio [2]: 1.89; Kd [2, 30]: 0.0342 ± 0.0093 µM; Kd [2, 31]: 0.0486 ± 0.0097 µM; cZ/tZ KD ratio [3]: 2.58; Kd [3, 30]: 0.0206 ± 0.0026 µM; Kd [3, 31]: 0.02 ± 0.0049 µM; Kd [4, 30]: 0.0166 ± 0.0024 µM; Kd [4, 31]: 0.039 ± 0.0051 µM; cZ/tZ KD ratio [5]: 55.4; cZ/tZ KD ratio [6]: 17.0; cZ/tZ KD ratio (affinity for tZ exceeds that for cZ) [7]: 376 folds
5 | CC(C)=CCNc1ncnc2nc[nH]c12 [iP, isopentenyladenine] |  | 0.0012 ± 0.0003 µM |  | 0.0009 µM | 0.0016 ± 0.00013 µM | 0.0008 ± 0.0002 µM | 0.0017 ± 0.00016 µM | 0.0025 ± 0.0008 µM | 0.0036 ± 0.00017 µM | 0.003 ± 0.0007 µM | 0.0022 ± 8e-05 µM |  |  |  |  |  |  |  | Kd [8]: 0.00159 µM; Kd [9]: 0.00145 µM; Kd [10]: 0.00156 µM; Kd [11]: 0.00175 µM; Kd [12]: 0.00389 µM; Kd [13]: 0.00203 µM; binding of labeled iP [14]: did not recognize; binding of labeled iP [15]: did not recognize
6 | C/C(=C\CNc1ncnc2[nH]cnc12)CO [tZ, trans-zeatin] | 0.0369 ± 0.002 µM | 0.0248 ± 0.0029 µM | 0.0181 ± 0.0015 µM | 0.0124 ± 0.0015 µM |  |  |  |  |  |  |  |  |  | 7.21 | 0.00757 ± 0.00037 µM | 0.0059 ± 0.001 µM | 0.00105 ± 9e-05 µM | 0.0013 ± 0.0004 µM | PpCHK1/CHK2 affinity ratio (KD1/KD2) ([1]; microsomes): 2.04; binding of labeled tZ [16]: lacks the ability to bind
